For assay [1], the target named is T1, native serotonin 5-HT1A receptors (Rattus norvegicus, UniProt P19327).
T1 construct: from tissue; host or cells: rat hippocampus membranes
T1 sequence (P19327 1-422): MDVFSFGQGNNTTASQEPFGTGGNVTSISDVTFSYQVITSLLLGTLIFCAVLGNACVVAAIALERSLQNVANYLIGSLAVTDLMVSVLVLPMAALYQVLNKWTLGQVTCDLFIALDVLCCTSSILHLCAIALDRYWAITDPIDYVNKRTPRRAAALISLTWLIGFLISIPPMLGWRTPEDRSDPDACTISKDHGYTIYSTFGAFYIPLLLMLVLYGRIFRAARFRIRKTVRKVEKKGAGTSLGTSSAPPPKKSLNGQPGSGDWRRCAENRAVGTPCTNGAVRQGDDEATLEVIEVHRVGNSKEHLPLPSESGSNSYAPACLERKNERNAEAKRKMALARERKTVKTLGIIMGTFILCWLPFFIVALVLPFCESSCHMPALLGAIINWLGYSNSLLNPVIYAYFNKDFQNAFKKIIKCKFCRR
The assay is described as follows: Radioligand binding, [3H]-8-OH-DPAT, rat hippocampal membranes. Also: SEM ≤ 22%. As to conditions: read-out: Ki 5-HT1A. As for the experimental part: (§1) Membrane preparation and a general assay procedure were carried out according to the previously published protocols. Two compound concentrations were tested: 0.1 and 1 μM, each run in triplicate.

The target in assay [2] is T2, native serotonin 5-HT2A receptors (Rattus norvegicus, UniProt P14842).
T2 construct: from tissue; host or cells: rat cortex membranes
The assay is described as follows: Radioligand binding, [3H]-ketanserin, rat cortical membranes. As to Ki 5-HT2A: SEM ≤ 22%. As to conditions: read-out: Ki 5-HT2A. On the procedure: as §1

In another assay the test system is 5-HT2A. As to conditions: cited from earlier work.
Another assay relates to 5-HT1A receptors. As to conditions: cited from earlier work.
Details of assay [3]: method as in PMID 17321139. As to conditions: doses of 5–20 mg/kg; ref [4]; cited from earlier work.

Where two headings read alike, the source gives them in different places.

T2 sequence (P14842 whole entry): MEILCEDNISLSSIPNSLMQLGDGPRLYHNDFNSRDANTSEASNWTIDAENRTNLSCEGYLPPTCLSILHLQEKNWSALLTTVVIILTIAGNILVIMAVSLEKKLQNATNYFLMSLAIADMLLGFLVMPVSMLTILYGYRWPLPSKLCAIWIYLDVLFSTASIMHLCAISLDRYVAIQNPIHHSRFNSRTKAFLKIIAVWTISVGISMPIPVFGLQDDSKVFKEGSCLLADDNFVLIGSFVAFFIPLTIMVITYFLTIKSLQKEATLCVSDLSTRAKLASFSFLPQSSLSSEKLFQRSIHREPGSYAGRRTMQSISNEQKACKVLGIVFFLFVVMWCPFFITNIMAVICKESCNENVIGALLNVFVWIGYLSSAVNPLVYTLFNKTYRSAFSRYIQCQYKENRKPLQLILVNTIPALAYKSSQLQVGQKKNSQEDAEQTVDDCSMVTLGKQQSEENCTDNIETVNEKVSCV

For the compound `CC(=O)N[C@H]1CC(=O)N(CCCN2CCN(c3cccc(C(F)(F)F)c3)CC2)C1=O` [9{8,1}, N-((S)-1-{3-[4-((3-trifluoromethyl)phenyl)piperazin-1-yl]propyl}pyrrolidin-2,5-dion-yl)acetamide], the potency estimated from few doses in assay [1] is 129 nM; in assay [2] it was 164 nM.

For the compound `O=C(N[C@H]1CC(=O)N(CCCN2CCN(c3cccc(C(F)(F)F)c3)CC2)C1=O)C1CCCCC1` [9{8,3}, N-((S)-1-{3-[4-((3-trifluoromethyl)phenyl)piperazin-1-yl]propyl}pyrrolidin-2,5-dion-yl)cyclohexanecarboxamide], the potency estimated from few doses in assay [1] is 170 nM; in assay [2] it was 276 nM.

Turning to `O=C(N[C@H]1CC(=O)N(CCCCN2CCN(c3cccc(C(F)(F)F)c3)CC2)C1=O)C1CCCC1` [9{9,2}, N-((S)-1-{4-[4-((3-trifluoromethyl)phenyl)piperazin-1-yl]butyl}pyrrolidin-2,5-dion-yl)cyclopentanecarboxamide], the potency estimated from few doses is 24 nM in assay [1] and 79 nM in assay [2].

Regarding `O=C(N[C@H]1CC(=O)N(CCCCN2CCN(c3cccc(C(F)(F)F)c3)CC2)C1=O)C1CCCCC1` [9{9,3}, N-((S)-1-{4-[4-((3-trifluoromethyl)phenyl)piperazin-1-yl]butyl}pyrrolidin-2,5-dion-3-yl)cyclohexanecarboxamide], the potency estimated from few doses in assay [1] is 19 nM; in assay [2], 70 nM.

Turning to `O=C1C[C@H](NC(=O)C23CC4CC(CC(C4)C2)C3)C(=O)N1CCCCN1CCN(c2cccc(C(F)(F)F)c2)CC1` [9{9,6}, N-((S)-1-{4-[4-((3-trifluoromethyl)phenyl)piperazin-1-yl]butyl}pyrrolidin-2,5-dion-yl)-1-adamatanecarboxamide], the potency estimated from few doses was 21 nM in assay [1] and 39 nM in assay [2].

Regarding `O=C(NCCCN1CCN(c2cccc(C(F)(F)F)c2)CC1)[C@@H]1CCCN1C(=O)C12CC3CC(CC(C3)C1)C2` [10{8,6}, 1-(Adamantylcarbonyl)-N-{3-[4-((3-trifluoromethyl)phenyl)piperazin-1-yl]propyl}-L-prolinamide], the results for the potency estimated from few doses in assay [1] and in assay [2] were 42 nM and 1650 nM, respectively.

Regarding `O=C(NCCCCN1CCN(c2cccc(C(F)(F)F)c2)CC1)[C@@H]1CCCN1C(=O)C1CCCC1` [10{9,2}, 1-(Cyclopentylcarbonyl)-N-{4-[4-((3-trifluoromethyl)phenyl)piperazin-1-yl]butyl}-L-prolinamide], the potency estimated from few doses in assay [1] was 26 nM; in assay [2] it was 191 nM.

For `O=C(NCCCCN1CCN(c2cccc(C(F)(F)F)c2)CC1)[C@@H]1CCCN1C(=O)C12CC3CC(CC(C3)C1)C2` [10{9,6}, 1-(Adamantylcarbonyl)-N-{4-[4-((3-trifluoromethyl)phenyl)piperazin-1-yl]butyl}-L-prolinamide], the potency estimated from few doses was 8 nM in assay [1] and 699 nM in assay [2].

Take `O=c1[nH]c2ccccc2n1CCN1CCN(c2cccc(C(F)(F)F)c2)CC1` [Flibanserin]: the “functional activity at 5-HT2A receptors” value in the assay with 5-HT2A (ref [1],[2]) is “antagonist”. Also, in the assay on 5-HT1A receptors (ref [1],[2]), the “functional activity at 5-HT1A receptors” value is listed as “agonist”.

As to `COc1ccccc1N1CCN(CCCCN2C(=O)C[C@H](NC(=O)C3CCCCC3)C2=O)CC1` [PZ-68], the “functional activity at 5-HT2A receptors” value in the assay on 5-HT2A (ref [4]) is given as “antagonist”. In addition, the “functional activity at 5-HT1A receptors” value in the assay with 5-HT1A receptors (ref [4]) was “partial agonist”. Besides, the “in vivo antidepressant-like activity” value in assay [3] was “showed in vivo antidepressant-like activity”.

On to `O=C1CC2(CCCC2)CC(=O)N1CCCCN1CCN(c2ncccn2)CC1` [buspirone, reference compound], for which the potency estimated from few doses in assay [1] was 36 nM.
